From patent publication US8110585B2, “Bicyclic compound and pharmaceutical use thereof” (Takeda Pharmaceutical Company Limited, priority 2007, dated 2012)

What was measured:
[1] = target: T1, human melatonin 1 receptors (human MT1 receptors) (Homo sapiens, UniProt P48039); test: Melatonin receptor binding inhibitory test, 2-[125I] Iodomelatonin, MT1; settings: membrane fraction of CHO-hMelR7 cells, 25° C. for 2.5 hr, read-out: binding inhibitory activity as IC50 value for MT1
T1 construct: expressed in transfected cells; membrane fraction

[2] = target: T2, human melatonin 2 receptors (human MT2 receptors) (Homo sapiens, UniProt P49286); test: Melatonin receptor binding inhibitory test, 2-[125I] Iodomelatonin, MT2; settings: membrane fraction of CHO-hMT2 cells, 25° C. for 2.5 hr, read-out: binding inhibitory activity as IC50 value for MT2
T2 construct: expressed in transfected cells; membrane fraction
T2 sequence (P49286 1-362): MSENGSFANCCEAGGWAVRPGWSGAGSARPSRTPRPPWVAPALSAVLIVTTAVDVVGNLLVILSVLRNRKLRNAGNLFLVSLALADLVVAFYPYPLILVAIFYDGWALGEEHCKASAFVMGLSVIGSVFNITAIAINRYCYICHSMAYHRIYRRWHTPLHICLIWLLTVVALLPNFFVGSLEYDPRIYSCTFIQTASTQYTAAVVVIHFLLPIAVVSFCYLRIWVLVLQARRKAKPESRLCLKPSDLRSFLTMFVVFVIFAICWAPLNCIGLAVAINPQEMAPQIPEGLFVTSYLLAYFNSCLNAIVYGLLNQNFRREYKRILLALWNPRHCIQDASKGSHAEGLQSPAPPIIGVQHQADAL

T1 sequence (P48039 whole entry): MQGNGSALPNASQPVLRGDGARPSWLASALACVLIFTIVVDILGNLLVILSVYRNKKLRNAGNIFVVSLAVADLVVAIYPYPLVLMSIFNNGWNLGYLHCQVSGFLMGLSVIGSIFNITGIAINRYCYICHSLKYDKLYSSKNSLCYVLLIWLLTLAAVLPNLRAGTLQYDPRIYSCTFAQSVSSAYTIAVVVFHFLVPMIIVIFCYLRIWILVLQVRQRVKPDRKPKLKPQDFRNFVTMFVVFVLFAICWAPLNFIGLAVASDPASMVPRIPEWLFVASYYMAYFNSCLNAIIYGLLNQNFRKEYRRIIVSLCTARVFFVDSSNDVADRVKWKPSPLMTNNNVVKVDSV

Row | SMILES | IC50 [1] [nM] | IC50 [2] [nM] | melting point [°C]
1 | CCCC(=O)NC[C@@H]1C[C@H]1c1cccn2nc(C)cc12 (relative stereo) [Example 45, trans-N-{[2-(2-methylpyrazolo[1,5-a]pyridin-4-yl)cyclopropyl]methyl}butanamide] | ≤ 100 | ≤ 100 | 82 to 84
2 | CC(=O)NC[C@H]1C[C@@H]1c1cccn2nc(C)cc12 [Example 43, N-{[(1S,2S)-2-(2-methylpyrazolo[1,5-a]pyridin-4-yl)cyclopropyl]methyl}acetamide] | ≤ 100 | ≤ 100 | 69 to 70
3 | CC(=O)NC[C@@H]1C[C@H]1c1cccc2nn(C)c(F)c12 [Example 19, N-{[(1R,2R)-2-(3-fluoro-2-methyl-2H-indazol-4-yl)cyclopropyl]methyl}acetamide] | ≤ 100 | ≤ 100 | 138 to 139
4 | CCC(=O)NC[C@@H]1C[C@H]1c1cccn2nc(C)cc12 (relative stereo) [Example 6, trans-N-{[2-(2-methylpyrazolo[1,5-a]pyridin-4-yl)cyclopropyl]methyl}propanamide] | ≤ 100 | ≤ 100 | 95 to 98
5 | CC(=O)NCC1CC1c1cccc2nc(C)nn12 (stereo not drawn) [Example 56, N-{[2-(2-methyl[1,2,4]triazolo[1,5-a]pyridin-5-yl)cyclopropyl]methyl}acetamide] | ≤ 100 | ≤ 100 | 124 to 126
6 | CC(=O)NCC1CC1c1ccc(F)c2nn(C)cc12 (stereo not drawn) [Example 38, N-{[2-(7-fluoro-2-methyl-2H-indazol-4-yl)cyclopropyl]methyl}acetamide] | ≤ 100 | ≤ 100 | 147 to 148
